Source: US20250171437A1 (Agios Pharmaceuticals,Inc., priority 2022, published 2025)

Molecular target: T1, human PAH with the R408W mutation (A375 R408W cells) (Homo sapiens, UniProt P00439, R408W)
T1 construct: expressed in transfected cells
T1 sequence (P00439 1-452 R408W): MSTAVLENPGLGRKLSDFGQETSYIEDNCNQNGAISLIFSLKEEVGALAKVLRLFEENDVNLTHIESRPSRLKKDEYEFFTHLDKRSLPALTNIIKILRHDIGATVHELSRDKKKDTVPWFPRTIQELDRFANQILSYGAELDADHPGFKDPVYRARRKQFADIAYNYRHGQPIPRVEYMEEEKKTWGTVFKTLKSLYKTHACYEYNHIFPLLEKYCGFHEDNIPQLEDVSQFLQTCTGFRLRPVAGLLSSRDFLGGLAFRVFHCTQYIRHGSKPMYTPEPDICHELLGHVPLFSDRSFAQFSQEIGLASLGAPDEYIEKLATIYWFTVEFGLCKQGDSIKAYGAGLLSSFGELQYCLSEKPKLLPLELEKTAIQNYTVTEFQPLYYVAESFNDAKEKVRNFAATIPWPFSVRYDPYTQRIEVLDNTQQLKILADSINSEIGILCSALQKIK
Test: Cell Based Phenylalanine Flux Assay
Conditions: A375 R408W cells; 24 hrs with compound, then 20 μM sepiapterin and 800 μM 13C9,15N-Phenylalanine for 4 hours; 13C-Tyrosine by LC-MS; average where tested multiple times
In short: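 Stable R408W PAH A375 cells: 24 h compound pretreatment in duplicate, then 4 h with 800 μM isotope-labelled Phe and 20 μM sepiapterin. Labelled Tyr output by LC-MS; AC50 averaged where repeated.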

SMILES | AC50 [nM]
CN(C)CCc1cn2ncc(C(=O)N3CCc4[nH]cnc4[C@@H]3c3nc4cc(F)ccc4o3)c2cc1Cl [Example 80, (R)-(5-chloro-6-(2-(dimethylamino)ethyl)pyrazolo[1,5-a]pyridin-3-yl)(4-(5-fluorobenzo[d]oxazol-2-yl)-6,7-dihydro-1H-imidazo[4,5-c]pyridin-5(4H)-yl)methanone] | 1000 to 5000
CN(C)C(C)(C)c1nc(C(F)F)c(C(=O)N2CCc3[nH]cnc3[C@@H]2c2nc3cc(F)ccc3o2)o1 [Example 292, (R)-(4-(difluoromethyl)-2-(2-(dimethylamino)propan-2-yl)oxazol-5-yl)(4-(5-fluorobenzo[d]oxazol-2-yl)-6,7-dihydro-1H-imidazo[4,5-c]pyridin-5(4H)-yl)methanone] | ≤ 500
CC(C)(O)c1nc(Br)c(C(=O)N2CCc3[nH]cnc3[C@H]2c2nc3cc(F)ccc3o2)o1 [Example 124, (S)-(4-bromo-2-(2-hydroxypropan-2-yl)oxazol-5-yl)(4-(5-fluorobenzo[d]oxazol-2-yl)-6,7-dihydro-1H-imidazo[4,5-c]pyridin-5(4H)-yl)methanone] | 500 to 1000
Cn1cc(-c2nnc(C(=O)N3CCc4[nH]cnc4[C@H]3c3nc4cccc(F)c4o3)o2)cn1 [Example 191, (S)-(4-(7-fluorobenzo[d]oxazol-2-yl)-6,7-dihydro-1H-imidazo[4,5-c]pyridin-5(4H)-yl)(5-(1-methyl-1H-pyrazol-4-yl)-1,3,4-oxadiazol-2-yl)methanone] | 500 to 1000
[2H]C([2H])([2H])OCc1nc(C(F)F)c(C(=O)N2CCc3[nH]cnc3[C@@H]2c2nc3cc(F)ccc3o2)o1 [Example 156, (R)-(4-(difluoromethyl)-2-((methoxy-d3)methyl)oxazol-5-yl)(4-(5-fluorobenzo[d]oxazol-2-yl)-1,4,6,7-tetrahydro-5H-imidazo[4,5-c]pyridin-5-yl)methanone] | 1000 to 5000
O=C(c1cnn2cc(N3CCOCC3)c(Cl)cc12)N1CCc2[nH]cnc2[C@H]1c1nc2cc(F)ccc2o1 [Example 175, (S)-(5-chloro-6-morpholinopyrazolo[1,5-a]pyridin-3-yl)(4-(5-fluorobenzo[d]oxazol-2-yl)-6,7-dihydro-1H-imidazo[4,5-c]pyridin-5(4H)-yl)methanone] | 500 to 1000
Cc1nc([C@H](C)O)oc1C(=O)N1CCc2[nH]cnc2[C@H]1c1nc2ccc(F)cc2o1 [Example 241, ((S)-4-(6-fluorobenzo[d]oxazol-2-yl)-6,7-dihydro-1H-imidazo[4,5-c]pyridin-5(4H)-yl)(2-((S)-1-hydroxyethyl)-4-methyloxazol-5-yl)methanone] | 1000 to 5000
CC(C)(O)c1nc(C(F)F)c(C(=O)N2CCc3[nH]cnc3[C@H]2c2nc3c(F)cc(F)cc3o2)o1 [Example 299, (S)-(4-(4,6-difluorobenzo[d]oxazol-2-yl)-6,7-dihydro-1H-imidazo[4,5-c]pyridin-5(4H)-yl)(4-(difluoromethyl)-2-(2-hydroxypropan-2-yl)oxazol-5-yl)methanone] | ≤ 500

Further lines, results first:

AC50 [nM] | SMILES
1000 to 5000 | Cc1cccc2nc([C@H]3c4nc[nH]c4CCN3C(=O)c3ccnn3C)oc12 [Example 748, (R)-(1-methyl-1H-pyrazol-5-yl)(4-(7-methylbenzo[d]oxazol-2-yl)-6,7-dihydro-1H-imidazo[4,5-c]pyridin-5(4H)-yl)methanone]
≤ 500 | Cc1ncoc1C(=O)N1CCc2[nH]cnc2[C@H]1c1nc2cccc(F)c2o1 [Example 569, (S)-(4-(7-fluorobenzo[d]oxazol-2-yl)-6,7-dihydro-1H-imidazo[4,5-c]pyridin-5(4H)-yl)(4-methyloxazol-5-yl)methanone]
1000 to 5000 | Cc1ccc2oc([C@H]3c4nc[nH]c4CCN3C(=O)c3nnc(-c4ncccc4F)o3)nc2c1 [Example 654, (R)-(5-(3-fluoropyridin-2-yl)-1,3,4-oxadiazol-2-yl)(4-(5-methylbenzo[d]oxazol-2-yl)-6,7-dihydro-1H-imidazo[4,5-c]pyridin-5(4H)-yl)methanone]
≤ 500 | Cn1nc(C(F)F)cc1C(=O)N1CCc2[nH]cnc2[C@H]1c1nc2cccc(F)c2o1 [Example 733, (S)-(3-(difluoromethyl)-1-methyl-1H-pyrazol-5-yl)(4-(7-fluorobenzo[d]oxazol-2-yl)-6,7-dihydro-1H-imidazo[4,5-c]pyridin-5(4H)-yl)methanone]
500 to 1000 | O=C(CCc1ncco1)N1CCc2[nH]cnc2[C@H]1c1nc2c(F)cccc2o1 [Example 887, (S)-1-(4-(4-fluorobenzo[d]oxazol-2-yl)-6,7-dihydro-1H-imidazo[4,5-c]pyridin-5(4H)-yl)-3-(oxazol-2-yl)propan-1-one]
≤ 500 | Cn1cc(-c2ccc3c(C(=O)N4CCc5[nH]cnc5[C@H]4c4nc5cccc(F)c5o4)cnn3c2)cn1 [Example 383, (S)-(4-(7-fluorobenzo[d]oxazol-2-yl)-6,7-dihydro-1H-imidazo[4,5-c]pyridin-5(4H)-yl)(6-(1-methyl-1H-pyrazol-4-yl)pyrazolo[1,5-a]pyridin-3-yl)methanone]
500 to 1000 | Cc1ccc2oc([C@H]3c4nc[nH]c4CCN3C(=O)c3ccnn3C(F)F)nc2c1 [Example 314, (R)-(1-(difluoromethyl)-1H-pyrazol-5-yl)(4-(5-methylbenzo[d]oxazol-2-yl)-6,7-dihydro-1H-imidazo[4,5-c]pyridin-5(4H)-yl)methanone]
1000 to 5000 | O=C(N1CCc2[nH]cnc2[C@H]1c1nc2cc(F)ccc2o1)C1(c2cnco2)CC1 [Example 917, (S)-(4-(5-fluorobenzo[d]oxazol-2-yl)-6,7-dihydro-1H-imidazo[4,5-c]pyridin-5(4H)-yl)(1-(oxazol-5-yl)cyclopropyl)methanone]
≤ 500 | O=C(c1ocnc1C(F)(F)F)N1CCc2[nH]cnc2[C@H]1c1nc2ccccc2o1 [Example 797, (S)-(4-(benzo[d]oxazol-2-yl)-6,7-dihydro-1H-imidazo[4,5-c]pyridin-5(4H)-yl)(4-(trifluoromethyl)oxazol-5-yl)methanone]
≥ 5000 | COc1cccc2oc([C@H]3c4nc[nH]c4CCN3C(=O)c3ncnn3C)nc12 [Example 904, (R)-(4-(4-methoxybenzo[d]oxazol-2-yl)-6,7-dihydro-1H-imidazo[4,5-c]pyridin-5(4H)-yl)(1-methyl-1H-1,2,4-triazol-5-yl)methanone]
500 to 1000 | O=C(c1oc(-c2ccncc2)nc1C(F)F)N1CCc2[nH]cnc2[C@@H]1c1nc2cc(F)ccc2o1 [Example 422, (R)-(4-(difluoromethyl)-2-(pyridin-4-yl)oxazol-5-yl)(4-(5-fluorobenzo[d]oxazol-2-yl)-6,7-dihydro-1H-imidazo[4,5-c]pyridin-5(4H)-yl)methanone]
≤ 500 | Cc1ccc2oc([C@@H]3c4nc[nH]c4CCN3C(=O)c3nnc(-c4ncccc4F)o3)nc2c1 [Example 653, (S)-(5-(3-fluoropyridin-2-yl)-1,3,4-oxadiazol-2-yl)(4-(5-methylbenzo[d]oxazol-2-yl)-6,7-dihydro-1H-imidazo[4,5-c]pyridin-5(4H)-yl)methanone]
500 to 1000 | CC(C)(O)C1CCN(c2ccc3c(C(=O)N4CCc5[nH]cnc5[C@H]4c4nc5cccc(F)c5o4)cnn3c2)CC1 [Example 368, (S)-(4-(7-fluorobenzo[d]oxazol-2-yl)-6,7-dihydro-1H-imidazo[4,5-c]pyridin-5(4H)-yl)(6-(4-(2-hydroxypropan-2-yl)piperidin-1-yl)pyrazolo[1,5-a]pyridin-3-yl)methanone]
1000 to 5000 | Cn1nc(C(F)F)nc1C(=O)N1CCc2[nH]cnc2[C@@H]1c1nc2c(F)ccc(F)c2o1 [Example 485, (R)-(4-(4,7-difluorobenzo[d]oxazol-2-yl)-6,7-dihydro-1H-imidazo[4,5-c]pyridin-5(4H)-yl)(3-(difluoromethyl)-1-methyl-1H-1,2,4-triazol-5-yl)methanone]
≤ 500 | COc1cccc2nc([C@@H]3c4nc[nH]c4CCN3C(=O)c3oc(C(C)(C)O)nc3C(F)F)oc12 [Example 455, (S)-(4-(difluoromethyl)-2-(2-hydroxypropan-2-yl)oxazol-5-yl)(4-(7-methoxybenzo[d]oxazol-2-yl)-6,7-dihydro-1H-imidazo[4,5-c]pyridin-5(4H)-yl)methanone]

Same assay, conditions: A375 cells expressing R408W PAH; 24 hrs with compound, then 20 μM sepiapterin and 800 μM 13C9,15N-Phenylalanine for 4 hours; 13C-Tyrosine by LC-MS; average where tested multiple times

SMILES | AC50 [nM]
Cn1nc(C(C)(C)C)nc1C(=O)N1CCc2[nH]cnc2C1c1nc2ccccc2o1 (stereo not drawn) | 1000 to 5000
O=C(c1nnc(N2CC(F)C2)o1)N1CCc2[nH]cnc2C1c1nc2cc(F)ccc2o1 (stereo not drawn) | 1000 to 5000
Cn1nc(C(C)(C)O)nc1C(=O)N1CCc2[nH]cnc2C1c1nc2cccc(F)c2o1 (stereo not drawn) | 1000 to 5000
N#Cc1ccc2c(C(=O)N3CCc4[nH]cnc4C3c3nc4cc(F)ccc4o3)cnn2c1 (stereo not drawn) | ≥ 5000
COC(=O)N1CC(C(=O)N2CCc3[nH]cnc3C2c2nc3cc(F)ccc3o2)C1 (stereo not drawn) | 1000 to 5000
Cc1ccc2oc(C3c4nc[nH]c4CCN3C(=O)c3nnc(C(C)(C)O)o3)nc2c1 (stereo not drawn) | ≥ 5000
COCCNc1ccc2c(C(=O)N3CCc4[nH]cnc4C3c3nc4cc(F)ccc4o3)cnn2c1 (stereo not drawn) | 1000 to 5000
Nc1cc(C(=O)N2CCc3[nH]cnc3C2c2nc3cc(F)ccc3o2)n(C(F)F)n1 (stereo not drawn) | ≥ 5000
Cc1ccc2nc(C3c4nc[nH]c4CCN3C(=O)c3cncs3)oc2c1 (stereo not drawn) | ≥ 5000
O=C(c1cnn(-c2ccccn2)c1Cl)N1CCc2[nH]cnc2C1c1nc2cc(F)ccc2o1 (stereo not drawn) | ≥ 5000
